Molecular target: T1, human zDHHC3 (Homo sapiens, UniProt Q9NYG2)
T1 construct: expressed in transfected cells; host or cells: HEK293T
T1 sequence (Q9NYG2 1-299): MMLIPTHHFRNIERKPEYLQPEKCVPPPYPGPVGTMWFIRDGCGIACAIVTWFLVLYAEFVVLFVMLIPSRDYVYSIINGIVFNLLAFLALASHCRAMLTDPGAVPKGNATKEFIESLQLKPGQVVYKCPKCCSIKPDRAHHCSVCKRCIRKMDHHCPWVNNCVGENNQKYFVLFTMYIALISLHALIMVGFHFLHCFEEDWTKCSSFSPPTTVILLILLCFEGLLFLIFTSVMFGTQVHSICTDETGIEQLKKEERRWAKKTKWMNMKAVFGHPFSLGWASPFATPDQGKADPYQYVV
Assay: GFP-SNAP25b S-acylation in HEK293T cells co-expressing zDHHC3
Type: cell-based
Settings: in cellulo HEK293T, compound 25 μM; for inhibition at 25 µM: HEK-293T, read-out: SNAP25 S-acylation inhibition (%), zDHHC3
Procedure: We next investigated whether the identified compounds were effective at inhibiting zDHHC enzyme isoforms other than zDHHC2 (Fig. 6 and Table 1). […] We therefore treated cells coexpressing GFP-SNAP25 and each of these zDHHC enzymes with 25 μM of TTZ-1 and TTZ-2 and studied the subsequent effect on SNAP25 S-acylation. […] Importantly, the level of enzyme expression was unaffected by the compounds. […] As any major differences in the expression levels of the different enzymes could in theory contribute to the apparent differential effects of TTZ-1 and TTZ-2, we directly compared the expression of zDHHC2, zDHHC3, zDHHC7, zDHHC15, and zDHHC17 when transfected in HEK293T cells together with GFP-SNAP25.
Figure 6 Activity of TTZ-1 and TTZ-2 against SNAP25 S-acylation by human zDHHC2, zDHHC3, zDHHC7, zDHHC15, and zDHHC17 expressed in mammalian cells.A–E, HEK293T cells were transfected with a plasmid encoding GFP-SNAP25b together with either a control plasmid pEF-BOS-HA (pEF) or a plasmid encoding either HA-tagged human zDHHC2 (zD2) (A), zDHHC3 (zD3) (B), zDHHC7 (zD7) (C), zDHHC15 (zD15) (D), or zDHHC17 (zD17) (E) for 24 h. Cells were then preincubated for 4 h with TTZ-1 or TTZ-2 (25 μM final) or DMSO control before metabolic labeling with 100 μM C16:0-azide for 4 h. Cells were lysed, and proteins having incorporated C16:0-azide were labeled by click chemistry with an alkyne-IR800 dye. Protein samples were then resolved by SDS-PAGE and transferred to nitrocellulose membranes that were first stained with an infrared-680 total protein stain. Membranes were then destained and probed with an anti-HA antibody (IR680), followed by an anti-GFP antibody (IR680). Representative images are shown, and panels are presented in the following order (from top to bottom): click chemistry signal (Click [IR800]), GFP and HA immunoblots (IR680), and Total Protein Stain (IR680). […] Three independent experiments were performed either in duplicate or in triplicate, and the quantification data were gathered on the graphs below each set of membranes. […]

Structure (SMILES)	inhibition at 25 µM [%]	SNAP25 S-acylation inhibition (%), zDHHC3
O=C(Nc1cccc2c1OC(c1nnn[nH]1)CN2)c1ccc(OCCCCc2ccccc2)cc1 (stereo not drawn) [TTZ-2, N-(2-(1H-Tetrazol-5-yl)-3,4-dihydro-2H-benzo[b][1,4]oxazin-8-yl)-4-(4-phenylbutoxy)benzamide]	19 ± 3	–
CCCCCCCOc1ccc(C(=O)Nc2cccc3c2OC(c2nnn[nH]2)CN3)cc1 (stereo not drawn) [TTZ-1, N-(2-(1H-Tetrazol-5-yl)-3,4-dihydro-2H-benzo[b][1,4]oxazin-8-yl)-4-(heptyloxy)benzamide]	9 ± 4	no significant effect
